US20160185808A1, “PLATINUM DERIVATIVES FOR HYDROPHOBIC FORMULATIONS” (priority 2013, published 2016)
Each block holds one molecule with its values, some of them ahead of it.

Columns and labels:
[1] = tested on: SKOV3 human ovary cancer cells; assay: Therapeutic efficacy in vivo against SKOV3 tumors in Nu/Nu mice
Experimental: The therapeutic efficacy of the Pt (II) complex against cancer was examined in vivo according to the following procedure, the results of which can be seen both in Table III and in graphical form in FIG. 4. To develop orthotropic tumors, 30 Nu/Nu female mice, each weighing approximately 20 g (Charles River Laboratories, Cambridge, Mass.), were injected intraperitoneally (ip) with 1×10^6 SKOV3 human ovary cancer cells (American Type Culture Collection (ATCC), Manassas, Va.) suspended in phosphate buffered saline. Animals were then dosed with nothing (control group) or test compounds. […] Cisplatin was administered to mice as a comparative sample and its effectiveness was also examined. The doses of Pt-MMA (21 mg/kg) and cis-Platin (5 mg/kg) were calculated so that animals received equivalent amounts of Pt. Dosing began 39 days after tumor injection in cells when the tumors had reached a volume of 150 mm^3-200 mm^3 measured with a ruler.
Control or platinum compound treatment was administered on the 39th, 46th, 53th, 60th, and 66th day after initial tumor injections. The survival time of each group of mice was determined and the median survival time (days) was estimated on the basis of the observed survival time of each mouse. The therapeutic effectiveness of the Pt (II) complex is represented by the median survival significance compared to control (P-Value).

[2] = Storage stability of nanoemulsion formulations; type: physicochemical; conditions: concentration up to 5 mg/ml, at both 4° C. and room temperature
Experimental: The poor […] of these compounds is due to the presence of a di-fatty acid structure, which causes them to be too hydrophobic. […] Nanoemulsion formulations prepared with a concentration of up to 5 mg/ml of cisplatin mono-myristate, cisplatin mono-palmitate, and cisplatin mono-stearate were stable at both 4° C. and room temperature for approximately 3 months.

[3] = cisplatin 5 mg/kg, Pt-MMA 21 mg/kg

Molecule: N.N.[Cl][Pt][Cl] [Cisplatin, Cis-dichlorodiammine Pt (II)]
median survival compared to control group (in words) [1]: not significantly improved | Average Tumor Size at 21 Days ([1]; 21 days, cisplatin 5 mg/kg, Pt-MMA 21 mg/kg): 640 ± 314 mm^3 | Average Tumor Starting Size ([1]; at start of dosing (day 39 after tumor injection)): 171 ± 43 mm^3 | Median Survival [1, 3]: 28 days | Time for First Tumor to Reach 1000 mm^3 [1, 3]: 17 days | Median Survival Significance Compared to Control (P-Value) ([1]; compared to control group): 0.0606

Molecule: CCCCCCCCCCCCCC(=O)[O][Pt]([NH2])([NH2])[Cl] [Cisplatin-mono myristate, cis-Diamine Pt (II) Chloride Monomyristic Acid]
Time nanoemulsion formulations were stable [2]: approximately 3 months

Time nanoemulsion formulations were stable [2]: approximately 3 months
Molecule: cis-Diamine Pt (II) Chloride Monopalmitic Acid [Cisplatin-mono palmitate]

Time nanoemulsion formulations were stable [2]: approximately 3 months
Molecule: cis-Diamine Pt (II) Chloride Monostearic Acid [Cisplatin-mono stearate]
